Source: US6924302B2, “Substituted triazole diamine derivatives as kinase inhibitors” (Ortho McNeil Pharmaceutical, Inc., priority 2000, dated 2005)

Tests used:
[1] = target: T1, CDK1:Cyclin-B (Homo sapiens, UniProt P06493); assay: CDK1 Screening Assay; assay type: biochemical; settings: Table 1; read-out: CDK1 IC50
T1 construct: purchased New England Biolabs 6020; host or cells: insect cells
Procedure: (§1) 70 μL of the kinase reaction mixture was dispensed into the well of a streptavidin coated FlashPlate™ (Cat. # SMP103, NEN, Boston, Mass.). Then 1 μL of test compound stock in 100% DMSO was added to the wells resulting in a final concentration of 1% DMSO in the reaction with a 100 μl final reaction volume. Next, CDK1:Cyclin-B protein was diluted in 50 mM Tris-HCl pH=8.0, 0.1% BSA at a concentration of 1 ng per μL and 30 μl (30 ng enzyme per test well) was added to each well to initiate the reaction. The reaction was incubated for one hour at 30° C. At the end of the 1-hour incubation, the reaction was terminated by aspirating the reaction mixture from the plate and washing the wells twice with PBS containing 100 mM EDTA. The histone-H1 biotinylated peptide substrate became immobilized on the Flashplate™ and the incorporation of ^33P-γ-ATP was measured by reading the plate on a scintillation counter. Inhibition of the enzymatic activity of CDK1 was measured by observing a reduced amount of ^33P-γ-ATP incorporated into the immobilized peptide.
Assays to test compound inhibition of other kinases were preformed using methods that measure the amount of phosphorylation of a biotinylated peptide substrate. Biotinylated peptide substrates were selected from the literature as appropriate for the enzyme being evaluated. […] Assay conditions vary slightly for each protein kinase, for example, insulin receptor kinase requires 10 mM MnCl2 for activity and Calmodulin-dependent protein kinase requires calmodulin and 10 mM CaCl2. These assay conditions are known in the art. The reaction mixture was dispensed into the wells of a streptavidin coated Flashplate and 1 μl drug stock in 100% DMSO was added to a 100 μl reaction volume resulting in a final concentration of 1% DMSO on the reaction. Enzyme was diluted in 50 mM Tris-HCl pH=8.0, 0.1% BSA and add to each well. The reaction was incubated for one hour at 30° C. in the presence of compound. After one hour the reaction mix was aspirated from the plate and the plate was washed with PBS containing 100 mM EDTA. The plate was read on a scintillation counter to determine ^33P-γ-ATP incorporated into the immobilized peptide. Test compounds were assayed in duplicate at 8 concentrations [100 uM, 10 uM, 1 uM, 100 nM, 10 nM, 1 nM, 100 pM, 10 pM]. A maximum and minimum signal for the assay was determined on each plate. The IC50 was calculated from the dose response curve of the percent inhibition of the maximum signal in the assay according to the formula [max signal—background/test compound signal—background (100)=% inhibition] by graphing the percent inhibition against the log concentration of test compound. Known inhibitor compounds appropriate for the kinase being assayed were also included on each plate. […]

[2] = target: T2, VEGF-R (vascular endothelial growth factor receptor-2) (Rattus norvegicus, UniProt O08775); assay: VEGF-R Screening Assay; assay type: biochemical; settings: Table 1; read-out: VEGF-R IC50
T2 construct: polyhistidine (6xHIS) (N)
Procedure: as §1, with “a 100 μL final reaction” for “a 100 μl final reaction”, “volume. Next, soluble rat tyrosine kinase containing an N-terminal 6×HIS tag was diluted” for “volume. Next, CDK1:Cyclin-B protein was diluted”, “concentration of 5 ng per” for “concentration of 1 ng per”, “and 30 μL (150 ng enzyme” for “and 30 μl (30 ng enzyme”, “EDTA. The PLC1 biotinylated peptide” for “EDTA. The histone-H1 biotinylated peptide”, “activity of the VEGF-R was measured” for “activity of CDK1 was measured”
Assays to test compound inhibition of other kinases were preformed using methods that measure the amount of phosphorylation of a biotinylated peptide substrate. Biotinylated peptide substrates were selected from the literature as appropriate for the enzyme being evaluated. […] Assay conditions vary slightly for each protein kinase, for example, insulin receptor kinase requires 10 mM MnCl2 for activity and Calmodulin-dependent protein kinase requires calmodulin and 10 mM CaCl2. These assay conditions are known in the art. The reaction mixture was dispensed into the wells of a streptavidin coated Flashplate and 1 μl drug stock in 100% DMSO was added to a 100 μl reaction volume resulting in a final concentration of 1% DMSO on the reaction. Enzyme was diluted in 50 mM Tris-HCl pH=8.0, 0.1% BSA and add to each well. The reaction was incubated for one hour at 30° C. in the presence of compound. After one hour the reaction mix was aspirated from the plate and the plate was washed with PBS containing 100 mM EDTA. The plate was read on a scintillation counter to determine ^33P-γ-ATP incorporated into the immobilized peptide. Test compounds were assayed in duplicate at 8 concentrations [100 uM, 10 uM, 1 uM, 100 nM, 10 nM, 1 nM, 100 pM, 10 pM]. A maximum and minimum signal for the assay was determined on each plate. The IC50 was calculated from the dose response curve of the percent inhibition of the maximum signal in the assay according to the formula [max signal—background/test compound signal—background (100)=% inhibition] by graphing the percent inhibition against the log concentration of test compound. Known inhibitor compounds appropriate for the kinase being assayed were also included on each plate.
CDK2 in complex with cyclin A is commercially available (Upstate Biotech, Lake Placid, N.Y.). The CDK4 complex was composed of a mouse CDK4 protein and a mouse Cyclin D1 protein (The mouse CDK4 protein was genetically fused to an N-terminal Flag-epitope tag and the mouse Cyclin D1 protein was fused with an N-terminal AU-1 epitope tag. The genes encoding these proteins were transferred to commercially available baculoviral vectors. The recombinant CDK4/D1 complex was then made by co-infecting commercially available insect cells with viruses carrying these two constructs). […] ERK-1 protein (Discontinued from Calbiochem). EGFR (epidermal growth factor receptor) is purified from human A431 cell membranes (Sigma, St. Louis, Mo., Cat.# E3641).

T2 sequence (O08775 786-1343): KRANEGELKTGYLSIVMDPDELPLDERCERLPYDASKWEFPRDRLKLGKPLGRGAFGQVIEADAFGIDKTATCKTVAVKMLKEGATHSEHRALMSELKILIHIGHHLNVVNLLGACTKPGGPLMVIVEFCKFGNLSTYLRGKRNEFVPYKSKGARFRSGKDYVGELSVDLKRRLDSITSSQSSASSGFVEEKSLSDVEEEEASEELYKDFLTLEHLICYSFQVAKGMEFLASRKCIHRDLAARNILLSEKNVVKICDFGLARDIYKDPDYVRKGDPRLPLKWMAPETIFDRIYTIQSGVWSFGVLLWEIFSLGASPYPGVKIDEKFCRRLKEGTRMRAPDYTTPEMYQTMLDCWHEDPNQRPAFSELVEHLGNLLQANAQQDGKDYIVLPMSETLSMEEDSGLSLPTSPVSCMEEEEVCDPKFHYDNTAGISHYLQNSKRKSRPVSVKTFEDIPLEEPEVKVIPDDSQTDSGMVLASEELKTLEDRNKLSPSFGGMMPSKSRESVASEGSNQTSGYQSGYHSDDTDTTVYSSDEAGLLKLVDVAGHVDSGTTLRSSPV
T1 sequence (P06493 whole entry): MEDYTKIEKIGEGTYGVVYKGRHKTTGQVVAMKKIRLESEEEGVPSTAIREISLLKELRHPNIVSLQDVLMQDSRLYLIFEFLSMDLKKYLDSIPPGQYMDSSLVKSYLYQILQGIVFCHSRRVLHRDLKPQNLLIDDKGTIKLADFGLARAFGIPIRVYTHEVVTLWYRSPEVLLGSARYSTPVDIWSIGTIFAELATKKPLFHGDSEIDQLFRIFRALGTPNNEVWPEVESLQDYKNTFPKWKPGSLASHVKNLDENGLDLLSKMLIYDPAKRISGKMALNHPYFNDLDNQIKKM
T1 sequence (P14635 whole entry partner): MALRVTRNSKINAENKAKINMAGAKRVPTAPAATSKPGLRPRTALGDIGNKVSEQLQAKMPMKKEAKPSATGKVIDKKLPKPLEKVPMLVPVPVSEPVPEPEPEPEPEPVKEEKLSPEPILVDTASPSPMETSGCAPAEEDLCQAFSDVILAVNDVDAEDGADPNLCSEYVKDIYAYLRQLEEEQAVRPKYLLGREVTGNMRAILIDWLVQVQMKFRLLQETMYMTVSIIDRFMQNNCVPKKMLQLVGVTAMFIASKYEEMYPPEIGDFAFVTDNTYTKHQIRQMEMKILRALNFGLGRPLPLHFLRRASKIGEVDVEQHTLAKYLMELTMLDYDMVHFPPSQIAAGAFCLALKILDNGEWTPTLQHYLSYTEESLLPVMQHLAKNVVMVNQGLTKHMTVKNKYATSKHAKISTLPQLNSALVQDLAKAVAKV

| Structure (SMILES) | IC50 [1] [nM] | IC50 [2] [nM] |
| --- | --- | --- |
| CCOc1ccsc1C(=O)n1nc(Nc2ccc(S(N)(=O)=O)cc2)nc1N [Cpd 18, 4-[[5-amino-1-[(3-ethoxy-2-thienyl)carbonyl]-1H-1,2,4-triazol-3-yl]amino]-benzenesulfonamide] | 67 | 58 |
| COc1cccc(OC)c1C(=O)n1nc(Nc2ccc(S(N)(=O)=O)cc2)nc1N [Cpd 10, 4-[[5-amino-1-(2,6-dimethoxybenzoyl)-1H-1,2,4-triazol-3-yl]amino]-benzenesulfonamide] | 252 | 491 |
| Nc1nc(Nc2ccc(S(N)(=O)=O)cc2)nn1C(=O)/C=C/c1c(F)cccc1F [Cpd 44, 4-[[5-amino-1-[(2E)-3-(2,6-difluorophenyl)-1-oxo-2-propenyl]-1H-1,2,4-triazol-3-yl]amino]-benzenesulfonamide] | 522 | 2680 |
| Cc1cc(C)c(C(=O)n2nc(Nc3ccc(S(N)(=O)=O)cc3)nc2N)c(C)c1 [Cpd 11, 4-[[5-amino-1-(2,4,6-trimethylbenzoyl)-1H-1,2,4-triazol-3-yl]amino]-benzenesulfonamide] | 305 | > 100000 |
| CC1CCC(C(=O)n2nc(Nc3ccc(S(N)(=O)=O)cc3)nc2N)CC1 (centres unmarked) [Cpd 46, 4-[[5-amino-1-[(4-methylcyclohexyl)carbonyl]-1H-1,2,4-triazol-3-yl]amino]-benzenesulfonamide] | 35.8 | 453 |
| CCCCC1CCC(C(=O)n2nc(Nc3ccc(S(N)(=O)=O)cc3)nc2N)CC1 (centres unmarked) [Cpd 48, 4-[[5-amino-1-[(4-butylcyclohexyl)carbonyl]-1H-1,2,4-triazol-3-yl]amino]-benzenesulfonamide] | 2600 | ~100000 |
| CC1CCCCC1C(=O)n1nc(Nc2ccc(S(N)(=O)=O)cc2)nc1N (centres unmarked) [Cpd 47, 4-[[5-amino-1-[(2-methylcyclohexyl)carbonyl]-1H-1,2,4-triazol-3-yl]amino]-benzenesulfonamide] | 58.6 | 2520 |
| Nc1nc(Nc2ccc(S(=O)(=O)N3CCCCC3)cc2)nn1C(=O)c1c(F)cccc1F [Cpd 13, 1-(2,6-difluorobenzoyl)-N^3-[4-(1-piperidinylsulfonyl)phenyl]-1H-1,2,4-triazole-3,5-diamine] | 535 | 532 |
| Nc1nc(Nc2ccc(S(N)(=O)=O)cc2)nn1C(=O)c1ccncc1 [Cpd 29, 4-[[5-amino-1-(4-pyridinylcarbonyl)-1H-1,2,4-triazol-3-yl]amino]-benzenesulfonamide] | 70400 | ~100000 |
| CC(=O)c1ccc(C(=O)n2nc(Nc3ccc(S(N)(=O)=O)cc3)nc2N)s1 [Cpd 22, 4-[[1-[(5-acetyl-2-thienyl)carbonyl]-5-amino-1H-1,2,4-triazol-3-yl]amino]-benzenesulfonamide] | 31.8 | 233 |
| Nc1nc(Nc2ccc(S(N)(=O)=O)cc2)nn1C(=O)c1ccccn1 [Cpd 27, 4-[[5-amino-1-(2-pyridinylcarbonyl)-1H-1,2,4-triazol-3-yl]amino]-benzenesulfonamide] | ~100000 | > 100000 |

Results, then the molecule that gave them:

| IC50 [1] [nM] | IC50 [2] [nM] | Structure (SMILES) |
| --- | --- | --- |
| 144 | 521 | Nc1nc(Nc2ccc(S(N)(=O)=O)cc2)nn1C(=O)c1ccc(F)cc1F [Cpd 5, 4-[[5-amino-1-(2,4-difluorobenzoyl)-1H-1,2,4-triazol-3-yl]amino]-benzenesulfonamide] |
| 195 | 11100 | Nc1nc(Nc2ccc(S(N)(=O)=O)cc2)nn1C(=O)Cc1cccs1 [Cpd 40, 4-[[5-amino-1-(2-thienylacetyl)-1H-1,2,4-triazol-3-yl]amino]-benzenesulfonamide] |
| 4.4 | 31 | Cc1ccc(C(=O)n2nc(Nc3ccc(S(N)(=O)=O)cc3)nc2N)s1 [Cpd 20, 4-[[5-amino-1-[(5-methyl-2-thienyl)carbonyl]-1H-1,2,4-triazol-3-yl]amino]-benzenesulfonamide] |
| 2210 | > 10000 | Nc1nc(Nc2ccc(S(N)(=O)=O)cc2)n(C(=O)c2c(F)cccc2F)n1 [Cpd 122, 4-[[3-amino-1-(2,6-difluorobenzoyl)-1H-1,2,4-triazol-5-yl]amino]-benzenesulfonamide] |
| 134 | 443 | Nc1nc(Nc2ccc(S(N)(=O)=O)cc2)nn1C(=O)/C=C/c1cccs1 [Cpd 42, 4-[[5-amino-1-[(2E)-1-oxo-3-(2-thienyl)-2-propenyl]-1H-1,2,4-triazol-3-yl]amino]-benzenesulfonamide] |
| 33.9 | 291 | CC(=O)Nc1ccsc1C(=O)n1nc(Nc2ccc(S(N)(=O)=O)cc2)nc1N [Cpd 19, N-[2-[[5-amino-3-[[4-(aminosulfonyl)phenyl]amino]-1H-1,2,4-triazol-1-yl]carbonyl]-3-thienyl]-acetamide] |
| 30 | 44 | Nc1nc(Nc2ccc(S(N)(=O)=O)cc2)nn1C(=O)c1cc2ccccc2s1 [Cpd 31, 4-[[5-amino-1-(benzo[b]thien-2-ylcarbonyl)-1H-1,2,4-triazol-3-yl]amino]-benzenesulfonamide] |
| 18400 | ~100000 | Nc1nc(Nc2ccc(S(N)(=O)=O)cc2)nn1C(=O)c1ccno1 [Cpd 26, 4-[[5-amino-1-(5-isoxazolylcarbonyl)-1H-1,2,4-triazol-3-yl]amino]-benzenesulfonamide] |
| 282 | 67.4 | Cc1ccsc1C(=O)n1nc(Nc2ccc(S(=O)(=O)N3CCCCC3)cc2)nc1N [Cpd 24, 1-[(3-methyl-2-thienyl)carbonyl]-N^3-[4-(1-piperidinylsulfonyl)phenyl]-1H-1,2,4-triazole-3,5-diamine] |
| 39 | 1600 | Nc1nc(Nc2ccc(S(N)(=O)=O)cc2)nn1C(=O)c1ccccc1[N+](=O)[O-] [Cpd 9, 4-[[5-amino-1-(2-nitrobenzoyl)-1H-1,2,4-triazol-3-yl]amino]-benzenesulfonamide] |
| 8.8 | 23 | Nc1nc(Nc2ccc(S(N)(=O)=O)cc2)nn1C(=O)c1ccc(Br)s1 [Cpd 21, 4-[[5-amino-1-[(5-bromo-2-thienyl)carbonyl]-1H-1,2,4-triazol-3-yl]amino]-benzenesulfonamide] |
